What was measured:
[1] = tested on: walnut twig beetle (WTB), Pityophthorus juglandis; assay: Example 1 Field Test 3: flight response to X with and without enantiomers of trans-conophthorin; assay type: in vivo; conditions: yellow sticky card traps, Pleasanton CA
Method: Field Bioassays of Semiochemicals. To test the attractiveness of the various compounds of interest, some of the commercially available materials listed above were poured into 15 ml capped polyethylene bottles (Product #s A1-1050/002, A1-1055/002; Contech Enterprises Inc., Delta, British Columbia, Canada) and attached to yellow sticky card traps (Trécé, Adair, OK). In addition, synthesized (+) and (−) enantiomers of trans-conophthorin were tested in 400 μl polyethylene Eppendorf microcentrifuge tubes. Four field studies were conducted (Table 2) that tested the flight responses to: 3-methyl-2-buten-l-ol and related isomers (Field Test 1); 3-methyl-2-buten-l-ol with and without racemic trans-conophthorin (Field Test 2); 3-methyl-2-buten-l-ol with and without the purified enantiomers of trans-conophthorin (Field Test 3); and 3-methyl-2-buten-l-ol with and without racemic chalcogran (Field Test 4).
Statistical Analysis. Field Tests 1-4 were each analyzed for treatment effect by using Friedman's non-parametric analysis of variance. (See Zar, J. H. 2010. Biostatistical Analysis, 5th Ed. Pearson Prentice Hall, New Jersey). Males and females were subjected to separate analyses. All treatments within experiments yielding a significant treatment effect were compared by using an a posteriori Nemenyi test (Zar 2010) with experimentwise α=0.05. Sex ratios of responding WTB were determined using Cochran's method for unbiased sampling (See Cochran, W. G. 1977. Sampling Techniques, 3rd ed. John Wiley, New York), with 95% confidence intervals calculated by using the Clopper-Pearson method. (See Zar, J. H. 2010. Biostatistical Analysis, 5th Ed. Pearson Prentice Hall, New Jersey).

WTB [2] = assay: Example 2 Field Test 2: X in combination with DMNT, vittatol, rose oxides; assay type: in vivo, Pityophthorus juglandis; parameters: trap catches, male WTB / trap catches, female WTB: dose or concentration left out as unconfirmed; conditions: 4-unit Lindgren funnel traps
Method: At the same time and location, the flight response of WTB to 3-methyl-2-buten-1-ol ([…], Contech) was tested in combination with each of the following compounds: DMNT [4,8-dimethyl-1,3(E),7-nonatriene], vittatol [(3R,6R)-3-hydroxy-2,2,6-trimethyltetrahydropyran], (−)- and (+)-rose oxide [tetrahydro-4-methyl-2-(2-methylpropenyl)-2H-pyran] (Table 3, Field Test 2). DMNT and vittatol were synthesized and provided by Prof. Wittko Francke, University of Hamburg, Institute of Organic Chemistry; whereas (−)-rose oxide (>99% chemical purity, product #83917-1 ML, Fluka, Milwaukee, Wis.) and (+)-rose oxide (>99% chemical purity, product #83915-1 ML, Fluka) were purchased. The compounds besides 3-methyl-2-buten-1-ol were released from closed 400 μl Eppendorf microcentrifuge tubes (Evergreen) with loads of approximately 50 μl (DMNT); 20 mg (vittatol, solid at room temperature); and approx. 200 μl each of (−)-and (+)-rose oxide. The six treatments were replicated in three spatial blocks and the treatments were re-randomized among the six trap stations in a block each time the traps were emptied (nearly every day).
Statistical Analyses. Analysis of treatment effects for the pouch vs. bottle experiment was done by using a sign test. (See Zar, J. H. 2010. Biostatistical Analysis. 5th ed. Pearson Prentice Hall, Englewood Cliffs, N.J.) The other four experiments were analyzed for treatment effect by using Friedman's non-parametric analysis of variance. Id. In all experiments, males and females were analyzed separately. All treatments within experiments yielding a significant treatment effect were compared by using an a posteriori Nemenyi test with experimentwise α=0.05. Id. For all experiments, differences among proportions of female WTB responding to treatments were analyzed by comparing 95% confidence intervals determined with the Clopper-Pearson method. Id.

WTB [3] = assay: Trap type: four Lindgren funnel traps and intercept panel trap baited with X; assay type: in vivo, Pityophthorus juglandis; conditions: for trap catches, female WTB / trap catches, male WTB: 15-80 mg/d
Method: In another set of experiments, the flight response of WTB to four types of Lindgren funnel traps (Contech) and an intercept panel trap (Alpha Scents Inc., Portland Oreg., product # AST0031) was tested at Wolfskill Experimental Orchards in mid-summer. Each trap was baited with the commercial formulation of 3-methyl-2-buten-1-ol (15-80 mg/d, Contech) hung inside the middle funnel of each funnel trap or in a recess in the middle of the cross vane panels of the panel trap. Each trap cup was filled with propylene glycol as described above and the traps were suspended from the top of a 3 m metal conduit pole. Three blocks of traps were installed and trap catches were collected daily when the flight activity was high. The five treatments were re-randomized among the five trap stations within each of the three blocks each time that the traps were emptied.
(§1) Statistical Analyses. Analyses of treatment effects for the tests of trap type were performed by using Friedman's non-parametric analysis of variance or a sign test, depending on the number of treatments. (See Zar, J. H. 2010. Biostatistical Analysis. 5th ed. Pearson Prentice Hall, Englewood Cliffs, N.J.) Analysis of treatment effects for the Rain•X experiment was performed by using a Wilcoxon paired sample test. Id. Multiple comparisons for experiments with more than two treatments were performed with an a posteriori Nemenyi test with experimentwise α=0.05. Id. In all cases, male and female WTB were analyzed separately. Proportions of female WTB responding to treatments were calculated and 95% confidence intervals determined by using the Clopper-Pearson method. Id.

WTB [4] = assay: Trap height: clear plexiglass panel traps baited with X; assay type: in vivo, Pityophthorus juglandis; conditions: 5 mg/d, 15 ml load
Method: Effect of Trap Height on Trap Catch. The flight response of WTB to clear plexiglass panel traps coated with Stikem Special (Seabright Labs, Emeryville, Calif.) and baited with 3-methyl-2-buten-1-ol (5 mg/d, 15 ml load, polyethylene bottle) located at three heights (2, 3, and 4 m above the forest floor) was tested. The traps were placed in the crowns of J. hindsii located in a native riparian stand at Shadow Cliffs Regional Park, Alameda Co., Calif. from early to mid-spring. Both sides of a single 23 cm×14 cm sheet of clear plexiglass were covered with Stikem Special adhesive and the sheet was hung from string at each of the 3 heights from a single J. hindsii branch. The aggregation pheromone bait was hung immediately above each trap. Each group of three traps was assigned a unique position within the stand and treated as a block in a completely randomized block design (N=22). Traps within a block were all collected on the same day; blocks were collected after 2 to 7 days (after periodic flights of WTB).
as §1

CC(C)=CCO [X, 3-methyl-2-buten-1-ol]
proportion of females responding [1]: 0.80 | trap catches, female WTB ([1]; about one month in fall, N=15): 47 | trap catches, male WTB ([1]; about one month in fall, N=15): 12 | proportion of females responding (WTB [2]): 0.70 | trap catches, female WTB (WTB [2]; N=42): 100 | trap catches, male WTB (WTB [2]; N=42): 43 | trap catches, female WTB (WTB [3]; 4-unit Lindgren funnel trap): 231 | trap catches, male WTB (WTB [3]; 4-unit Lindgren funnel trap): 72 | proportion of females responding (WTB [3]; 4-unit trap): 0.76 | proportion of females responding (WTB [3]; 8-unit trap): 0.76 | trap catches, female WTB (WTB [3]; 8-unit trap): 634 | trap catches, male WTB (WTB [3]; 8-unit trap): 202 | proportion of females responding (WTB [3]; 12-unit trap): 0.72 | trap catches, female WTB (WTB [3]; 12-unit trap): 892 | trap catches, male WTB (WTB [3]; 12-unit trap): 352 | proportion of females responding (WTB [3]; 16-unit trap): 0.73 | trap catches, female WTB (WTB [3]; 16-unit trap): 618 | trap catches, male WTB (WTB [3]; 16-unit trap): 233 | trap catches, female WTB (WTB [3]; intercept panel trap): 296 | trap catches, male WTB (WTB [3]; intercept panel trap): 128 | proportion of females responding (WTB [3]; panel trap): 0.70 | proportion of females responding (WTB [4]; clear plexiglass panel trap at 2 m): 0.68 | proportion of females responding (WTB [4]; clear plexiglass panel trap at 3 m): 0.64 | proportion of females responding (WTB [4]; clear plexiglass panel trap at 4 m): 0.72

From patent publication US20130014428A1, “METHODS OF MONITORING AND CONTROLLING THE WALNUT TWIG BEETLE, PITYOPHTHORUS JUGLANDIS” (The United States of America as Represented by the …, priority 2011, published 2013)
